A short description of the series: solvent given as SMILES.
The mark [1] stands for this setting: in O=P(c1ccccc1)(c1ccccc1)c1ccccc1Oc1ccccc1P(=O)(c1ccccc1)c1ccccc1.
Setting [2] is: in c1cc(-n2c3ccccc3c3ccccc32)cc(-n2c3ccccc3c3ccccc32)c1.

SMILES strings stand for the structures.

`c1ccc2c(-c3ccc4sc5ccc(-c6c7ccccc7cc7ccccc67)cc5c4c3)c3ccccc3cc2c1`: the fluorescence lifetime (in C1CCCCC1) worked out at 3.9 ns, the fluorescence lifetime (in CC#N) stood at 4.3 ns and the fluorescence lifetime (in ClCCl) is 4.7 ns.
Under setting [1], `O=C(c1ccc(-n2c3ccccc3c3ccccc32)cc1)c1ccc(-n2c3ccccc3c3ccccc32)cc1` returned a fluorescence lifetime of 59 ns.
Regarding `CC(C)(C)c1ccc2c(c1)c1cc(C(C)(C)C)ccc1n2-c1ccc(C#Cc2ccc3c4ccc(C#Cc5ccc(C=O)cc5)cc4n(-c4ccc(C(F)(F)F)cc4)c3c2)cc1`, for the setting “in ClCCl”, the fluorescence lifetime amounted to 0.84 ns.
The same measure, in the same setting: next, `CN(C)c1ccc(C2=Cc3ccccc3P2(=O)c2ccccc2)cc1` (stereo not given): 6.1 ns.
In turn, `Cn1c(=O)cc(C(=O)c2ccccc2)c2sc(-c3ccc(N(c4ccccc4)c4ccccc4)cc3)cc21` had a fluorescence lifetime (in ClCCl) of 0.99 ns.
Take `Cc1ccc(N(c2ccc(C)cc2)c2ccc(-c3ccc4c(c3)C(=O)c3ccccc3C4=O)cc2)cc1`: the fluorescence lifetime is, setting by setting: (in CCCCCC) 6.89 ns; (in CCOCC) 1.27 ns; (in Cc1ccccc1) 5.75 ns; (in ClC(Cl)(Cl)Cl) 9.25 ns.
For `CC[n+]1c(C=C2C(=O)C(C=C3N(C)c4ccc(Cl)cc4C3(C)C)=C2[O-])[se]c2ccccc21`, the fluorescence lifetime by setting is: (in CO) 0.43 ns; (in ClC(Cl)Cl) 2.14 ns.
The compound `C[Si]1(C)c2ccc(-c3ccc(-c4cccs4)s3)cc2C=Cc2cc(-c3ccc(-c4cccs4)s3)ccc21` came in with a fluorescence lifetime (in ClCCl) of 0.47 ns.
In the case of `CN(C)c1ccc2nc(-c3ccc(C(=O)O)cc3)sc2c1`, the fluorescence lifetime reads like this: (in C1CCCCC1) 2.4 ns; (in c1ccccc1) 2.5 ns.
As to `O=C(O)c1c2ccccc2c(C(=O)O)c2ccccc12`, the fluorescence lifetime runs as follows: (in C1CCOC1) 8.8 ns; (in CN(C)C=O) 5.7 ns.
The compound `Cc1c(C(=O)c2ccc3c4cccc5cccc(c6cccc2c63)c54)c2ccc3cccc4c5cccc6ccc1c(c65)c2c34` returned a fluorescence lifetime (in ClCCl) of 1.1 ns.
Regarding `CN(C)c1ccc(/C=C/c2ccc(-c3nnc(-c4ccc(-c5cc6ccccc6s5)cc4)o3)cc2)cc1`, the fluorescence lifetime by setting is: (in Cc1ccccc1) 0.52 ns; (in ClC(Cl)Cl) 0.53 ns.
Turning to `N#Cc1ccc(-c2ccc3c(c2)c2cc(-c4ccc(C#N)cc4)ccc2c2c3nc(-c3ccc(-c4ccc(N(c5ccccc5)c5ccccc5)cc4)cc3)n2-c2ccccc2)cc1`, the fluorescence lifetime turned out to be 1.51 ns (in C1CCOC1), 2.86 ns (in CC#N), 1.04 ns (in CCCCCC) and 1.29 ns (in CCOCC).
With `c1ccc(-c2cc(-c3ccc4ccc5cccc6ccc3c4c56)ccn2)nc1`, the fluorescence lifetime is, setting by setting: (in C1CCOC1) 6.5 ns; (in CC#N) 4.7 ns; (in CCC#N) 4.6 ns; (in CCCC#N) 5.5 ns; (in CCCCCC) 8.1 ns; (in CCCO) 3.5 ns. Also, the fluorescence lifetime (in CCO) was 3.5 ns, the fluorescence lifetime (in CO) is 3.1 ns and the fluorescence lifetime (in Cc1ccccc1) is 6 ns.
On to `CC1(C)c2ccccc2N(c2ccc(S(=O)(=O)c3ccc(N4c5ccccc5C(C)(C)c5ccccc54)cc3)cc2)c2ccccc21`, for which the fluorescence lifetime by setting is: (in C1COCCO1) 21 ns; (in CC(C)=O) 20 ns; (in Cc1ccccc1) 20 ns; (in ClC(Cl)Cl) 21 ns; under setting [2], 21 ns.
The compound `COC(=O)/C(C#N)=c1\s/c(=c2/s/c(=C(/C#N)C(=O)OC)c3cc(-c4ccc5c(c4)C(C)(C)c4ccccc4-5)sc23)c2sc(-c3ccc4c(c3)C(C)(C)c3ccccc3-4)cc12` came in with a fluorescence lifetime (in Cc1ccccc1) of 4.38 ns.
Where the note is “in C1CCOC1”, `COc1cc2c(cc1-c1cccs1)Cc1c3c(c4c(c1-2)-c1cc(OC)c(-c2cccs2)cc1C4)C(=O)N(CCC(C)C)C3=O` yielded a fluorescence lifetime of 3.18 ns.
Take `N#Cc1c(-n2c3ccccc3c3ccccc32)cccc1-n1c2ccccc2c2ccccc21`: the fluorescence lifetime is, setting by setting: (in Cc1ccccc1) 2.6 ns; under setting [1], 4 ns.
With `CC1=C(I)C(C)=[N+]2C1=C(c1c(-c3ccccn3)nc3ccccn13)c1c(C)cc(C)n1[B-]2(F)F`, the fluorescence lifetime (in ClCCl) is 0.3 ns.
In the case of `C1=CC2C=c3c(cc4cccc5cc6ccccc6c3c45)C3=c4ccccc4=CC(=C1)C32` (stereo not given), the fluorescence lifetime (in ClCCl) amounted to 3.16 ns.
`COc1ccc(-c2csc(/C(C#N)=C/c3ccncc3)n2)cc1` showed a fluorescence lifetime (in CC#N) of 1.92 ns.
The compound `CCCCCCN1C(=O)c2cccc3cc(/N=C\c4cnc5ccccc5c4)cc(c23)C1=O` came in with a fluorescence lifetime (in ClC(Cl)Cl) of 13.7 ns.
In the case of `CCCCCCCCCCc1cc(-c2cc(CCCCCCCCCC)c(-c3cccs3)s2)sc1-c1cccs1`, the fluorescence lifetime (in CCC(C)C) amounted to 0.38 ns.
`CCOc1ccc2c(-c3nc(-c4ccccc4)no3)cc(=O)oc2c1` showed a fluorescence lifetime (in CCO) of 6.7 ns.
Turning to `C[Si](C)(C)C#CC1=CC2=c3cc(C#C[Si](C)(C)C)c4nc(C(F)(F)C(F)(F)C(F)(F)F)nc5c(C#C[Si](C)(C)C)cc(c3c54)C3=CC(C#C[Si](C)(C)C)=C4N=C(C(F)(F)C(F)(F)C(F)(F)F)N=C1C4C32` (stereo not given), the fluorescence lifetime (in C1CCOC1) is 2.1 ns.
For the compound `c1ccc(-c2nnc(-c3ccc(N4c5ccccc5N(c5ccccc5)c5ccccc54)cc3)n2-c2ccccc2)cc1`, the fluorescence lifetime worked out at 3.9 ns (in Cc1ccccc1) and 3.5 ns under setting [2].
Regarding `COc1ccc2c(c1)c1cc(OC)ccc1c1c2c2c(C(=O)NC(C)(C)C)ccc(C(=O)NC(C)(C)C)c2c2c3ccc(OC)cc3c3cc(OC)ccc3c21`, the fluorescence lifetime (in ClCCl) is 0.85 ns.
Take `CCCCCCn1c2cc(/C=C(\C#N)c3ccccc3)ccc2c2ccc(/C=C(\C#N)c3ccccc3)cc21`: where the note is “in ClC(Cl)Cl”, the fluorescence lifetime is 0.58 ns.
Where the note is “in CC#N”, `Cc1cc(=O)oc2ccc3ccc(O)cc3c12` registered a fluorescence lifetime of 5.6 ns.
On to `CCC1(CC)c2ccccc2-c2c1c1c(c3c2C(CC)(CC)c2cc(/C=C/c4cccs4)ccc2-3)C(CC)(CC)c2ccccc2-1`, for which, where the note is “in C1CCOC1”, the fluorescence lifetime stood at 1.5 ns.
In the case of `COC(=O)c1cc(=O)n(C)c2cc(-c3ccc4c(c3)OCCO4)sc12`, for the setting “in ClCCl”, the fluorescence lifetime came to 2.15 ns.
In turn, `c1ccc(-c2nc(-c3ccccc3)nc(-c3cc(-n4c5ccccc5c5ncccc54)c(-n4c5ccccc5c5ncccc54)c(-n4c5ccccc5c5ncccc54)c3)n2)cc1` showed a fluorescence lifetime (in O=P(c1ccccc1)(c1ccccc1)c1ccc2oc3ccc(P(=O)(c4ccccc4)c4ccccc4)cc3c2c1) of 14.5 ns.
`[O-][n+]1c(/C=C/c2ccccc2)nc(N2CCOCC2)c2c1CCCC2`: the fluorescence lifetime (in ClCCl) was found to be 9.2 ns.
Consider `F[B-]1(F)n2c(Nc3cccc4cccnc34)ccc2C(c2ccccc2)=C2C=CC(Cl)=[N+]21`, for which the fluorescence lifetime was 3.21 ns (in C1CCCCC1) and 0.82 ns (in Cc1ccccc1).
In turn, `c1ccc(C2=Nc3cccc4[n+]3[B-](c3ccccc3)(N2)NC(c2ccccc2)=N4)cc1` had a fluorescence lifetime (in ClCCl) of 2.5 ns.
Take `C(#Cc1ccc(C#Cc2ccc(C#Cc3ccccc3)cc2)cc1)c1ccccc1`: under “in ClC(Cl)Cl”, the fluorescence lifetime amounted to 1.7 ns.
With `N#Cc1cccc(N)c1`, the fluorescence lifetime stood at 2.4 ns (in C1CCCCC1); 5.1 ns (in CC#N); 1.9 ns (in CCCCCC); 6.2 ns (in CCO); 0.045 ns (in O); 0.11 ns (in OCC(F)(F)F).
With `CCCCCCN1C(=O)c2cccc3cc(/N=C\c4ccc(N(c5ccccc5)c5ccccc5)cc4)cc(c23)C1=O`, the fluorescence lifetime (in ClC(Cl)Cl) came out at 15.4 ns.
Regarding `COc1c2ccccc2c(OC)c2c1c1cc(Cl)ccc1n2C`, the fluorescence lifetime reads like this: (in C1CCCCC1) 21.2 ns; (in CC#N) 26.8 ns; (in CO) 25.9 ns; (in ClCCl) 23.2 ns.
Under “in CN(C)C=O”, `CCCCCCCCCCCCN1C(=O)c2ccc3c4ccc5c6c(ccc(c7ccc(c2c37)C1=O)c64)C(=O)N(CCCCCCCCCCCC)C5=O` had a fluorescence lifetime of 4.1 ns.

The values above are taken from the Deep4Chem optical property database.
